US20240293459A1 (priority 2021, published 2024)

Test system: healthy donor PBMC (CD8+ T cells)
Assay type: cell-based, human
Conditions: of one 48 well plate; two rounds of stimulation with peptide-pulsed autologous DCs; HLA-matched healthy donor

Point of comparison: KLFAAETLK [NSP13-134], “wells showing clear peptide tetramer positive CD8+ T cell population” value 11 wells. Against it:
- TLVPQEHYV [NSP13-242] — higher, 48 wells
- VYIGDPAQL (listed as Homo Sapiens) [NSP13-400, NSP13 derived HLA-A2402 peptide] — lower, 9 wells
